Calls of active or inactive are those of the source. The rule behind the calls is not given here.

In series [1] the test system is Escherichia coli. The series can be described thus: Antimicrobial activity against Escherichia coli at 50 ug/disk after 24 hrs by agar plate diffusion assay. The series is classed as functional, organism-based.
Series [2] has as its system Candida albicans. As to the kind of experiment: Antimicrobial activity against Candida albicans at 100 ug/disk after 24 hrs by agar plate diffusion assay. The series is classed as functional, organism-based.
Series [3] concerns Artemia salina. As to the kind of experiment: Toxicity in Artemia salina at 10 ppm. In kind it is organism-based. The settings on record: in vivo.
The subject of series [4] is Escherichia coli. The series can be described thus: Antimicrobial activity against Escherichia coli at 100 ug/disk after 24 hrs by agar plate diffusion assay. The series is classed as functional, organism-based.
Series [5] deals with Staphylococcus aureus. The series can be described thus: Antimicrobial activity against Staphylococcus aureus at 100 ug/disk after 24 hrs by agar plate diffusion assay. In kind it is functional, organism-based.
In series [6] the test system is Bacillus subtilis. As to the kind of experiment: Antimicrobial activity against Bacillus subtilis at 50 ug/disk after 24 hrs by agar plate diffusion assay. The series is classed as functional, organism-based.
Series [7] relates to Staphylococcus aureus. The series can be described thus: Antimicrobial activity against Staphylococcus aureus at 50 ug/disk after 24 hrs by agar plate diffusion assay. The series is classed as functional, organism-based.
Series [8] has as its system Bacillus subtilis. The series can be described thus: Antimicrobial activity against Bacillus subtilis at 1000 ug/disk after 24 hrs by agar plate diffusion assay. The series is classed as functional, organism-based.
The test system of series [9] is Candida albicans. The series can be described thus: Antimicrobial activity against Candida albicans at 50 ug/disk after 24 hrs by agar plate diffusion assay. The series is classed as functional, organism-based.
Series [10] concerns Artemia salina. As to the kind of experiment: Toxicity in Artemia salina at 100 ppm. In kind it is organism-based. Particulars: in vivo.
Series [11] has as its system Cortical neurone. The series can be described thus: Neuroprotective activity in Wistar rat cortical neuron assessed as reduction of quisqualic acid-induced intracellular calcium level at 5 ug/mL relative to control. The series is classed as functional. Details: scale not given: the % may be the effect or the level left.
Series [12] concerns Cortical neurone. As to the kind of experiment: Neuroprotective activity in Wistar rat cortical neuron assessed as reduction of quisqualic acid-induced intracellular calcium level at 1 ug/mL relative to control. In kind it is functional. Details: scale not given: the % may be the effect or the level left.
The test system of series [13] is Cortical neurone. As to the kind of experiment: Neuroprotective activity in Wistar rat cortical neuron assessed as reduction of L-glutamic acid-induced intracellular calcium level at 1 ug/mL relative to control. Details: scale not given: the % may be the effect or the level left. The series is classed as functional. Background: A change in cytosolic calcium serves as a functional read-out for many receptors and channels.

In series [14] the test system is Cortical neurone. As to the kind of experiment: Neuroprotective activity in Wistar rat cortical neuron assessed as reduction of L-glutamic acid-induced intracellular calcium level at 5 ug/mL relative to control. More on the design: scale not given: the % may be the effect or the level left. In kind it is functional.
Series [15] deals with Spodoptera littoralis. The series can be described thus: Insecticidal activity against Spodoptera littoralis larvae assessed as survival rate at 100 ppm in artificial diet after 7 days relative to control. In kind it is functional.
For series [16], the system named is Spodoptera littoralis. The series can be described thus: Insecticidal activity against Spodoptera littoralis larvae assessed as reduction of weight at 100 ppm in artificial diet after 7 days relative to control. In kind it is functional. More on the design: scale not given: the % may be the effect or the level left.

Turning to `COc1cc(C)c2c(OC)c(-c3c(O)c4c(C)cc(O)cc4oc3=O)c(=O)oc2c1`, the result in the series on Escherichia coli [1], with Candida albicans [2], in the series with Escherichia coli [4], in the series on Staphylococcus aureus [5], in the series on Bacillus subtilis [6] and in the series with Staphylococcus aureus [7] was inactive. Further, the result in the series with Bacillus subtilis [8] and with Candida albicans [9] was inactive. In addition, the Activity result in the series on Artemia salina [3] and in the series on Artemia salina [10] was “Non-toxic” each time.
`NC(=O)c1c[nH]c(=O)cc1Cc1ccccc1` [ASPERNIGRIN A]: the result in the series with Escherichia coli [1], with Candida albicans [2], in the series on Escherichia coli [4], in the series with Staphylococcus aureus [5], in the series with Bacillus subtilis [6] and in the series with Staphylococcus aureus [7] was inactive. The result in the series with Bacillus subtilis [8] and in the series on Candida albicans [9] was inactive. For the same compound, the Activity result in the series on Artemia salina [3] and in the series with Artemia salina [10] was “Non-toxic” throughout.
Take `COc1cc([C@H](Cc2ccccc2)n2cc(C(N)=O)c(Cc3ccccc3)cc2=O)oc(=O)c1` [ASPERNIGRIN B]: the result with Escherichia coli [1], with Candida albicans [2], in the series on Escherichia coli [4], with Staphylococcus aureus [5], in the series with Bacillus subtilis [6] and in the series on Staphylococcus aureus [7] was inactive. In addition, the outcome with Bacillus subtilis [8] and in the series with Candida albicans [9] was inactive. Further, the Activity entry in the series on Artemia salina [3] was “Non-toxic”; in the series with Cortical neurone [11] it was 23.5%; in the series with Cortical neurone [12], 33.6%; in the series with Cortical neurone [13] it was 25.5%; in the series on Cortical neurone [14], 55%; with Artemia salina [10] it was “Non-toxic”.
As to `C/C=C/c1oc2c(c(=O)c1O)N[C@H](O)C2=O` [PYRANONIGRIN A], the result with Escherichia coli [1], in the series with Candida albicans [2], in the series with Escherichia coli [4], in the series on Staphylococcus aureus [5], with Bacillus subtilis [6] and with Staphylococcus aureus [7] was inactive. For the same compound, the result in the series with Bacillus subtilis [8] and in the series with Candida albicans [9] was inactive. The Activity entry is listed as “Non-toxic” in the series with Artemia salina [3], 85% in the series with Spodoptera littoralis [15], 29% with Spodoptera littoralis [16] and “Non-toxic” in the series with Artemia salina [10].
For the compound `C/C=C/c1oc2c(OC)c(O)n(O)c2c(=O)c1O` [PYRANONIGRIN B], the result with Escherichia coli [1], in the series with Candida albicans [2], in the series with Escherichia coli [4], in the series on Staphylococcus aureus [5], with Bacillus subtilis [6] and in the series with Staphylococcus aureus [7] was inactive. In addition, the outcome with Bacillus subtilis [8] and with Candida albicans [9] was inactive. Moreover, the Activity entry in the series on Artemia salina [3] and in the series on Artemia salina [10] was “Non-toxic” throughout.
In the case of `C/C=C/c1oc2c(O)c(OC)n(O)c2c(=O)c1O` [PYRANONIGRIN C], the result in the series with Escherichia coli [1], in the series on Candida albicans [2], in the series with Escherichia coli [4], with Staphylococcus aureus [5], in the series on Bacillus subtilis [6] and in the series on Staphylococcus aureus [7] was inactive. The result in the series on Bacillus subtilis [8] and in the series on Candida albicans [9] was inactive. Moreover, the Activity entry with Artemia salina [3] and with Artemia salina [10] was “Non-toxic” in each case.
